The subject of experiment [1] is Rhodococcus HPPD SEQ ID No. 5 (FMP22e). Put plainly: biochemical. In kind it is biochemical, Rhodococcus sp. (strain RHA1), isolate ro03041.
Experiment [2] has as its system Rhodococcus HPPD SEQ ID No. 19 (FMP23e). Put plainly: biochemical. In kind it is biochemical, Rhodococcus sp. (strain RHA1), isolate ro02040.
The next experiment concerns the target (UniProt Q0SC92). Kind of experiment: biochemical. In kind it is biochemical, Rhodococcus sp. (strain RHA1), isolate ro03041. Conditions: read-out: pI50 (converted).
Experiment [3] concerns the target (UniProt Q0SF39). Put plainly: biochemical. In kind it is biochemical, Rhodococcus sp. (strain RHA1), isolate ro02040. The following applies: read-out: pI50 (converted).
The test system of experiment [4] is tobacco plants containing Arabidopsis HPPD. Put plainly: Glasshouse trial, herbicidal damage on T1 tobacco. In kind it is in vivo, Nicotiana tabacum. The following applies: 7 DAT, 100 g AI/ha spray; Arabidopsis HPPD line 258, single T1 plants. The protocol: T0 Tobacco plants containing either the gene from Arabidopsis coding for HPPD or the gene FMP22e from Rhodococcus sp. (strain RHA1), isolate ro03041 coding for FMP22 HPPD, or the gene FMP23e from Rhodococcus sp. (strain RHA1), isolate ro02040 mentioned above (Example 3), were transferred to the glasshouse (28/20° C.), to develop further and produce seeds. Those seeds were harvested and put on soil (ED73 mixed with sand and osmocote Pro) to germinate in the glasshouse (28/20° C.). Three to four weeks later, plantlets were transferred to single pots containing the soil mentioned above. Two weeks later, plants of a size 4-6 cm diameter were sprayed with either • tembotrione at 100 gAl/ha prepared from a WP20 (wettable powder 20%) formulation supplemented with ammonium sulfate and methyl ester raps oil, or • isoxaflutole at 100 gAl/ha prepared from a WP20 formulation supplemented with ammonium sulfate and methyl ester raps oil, or • bicyclopyrone at 100 gAl/ha prepared from a WP20 formulation supplemented with ammonium sulfate and methyl ester raps oil, or • “blind formulation” made from a WP20 formulation without active ingredient (Al) supplemented with ammonium sulfate and methyl ester raps oil, and were then transferred to a growth chamber with adequate light conditions (20000 Lux).

The subject of experiment [5] is transgenic soybean shoots, FMP23t-h. Kind of experiment: Soybean shoot greening on isoxaflutole selection. In kind it is cell-based. The following applies: isoxaflutole as selection marker. The text has this: (§1) Soybean transformation is achieved using methods well known in the art, such as the one described using the Agrobacterium tumefaciens mediated transformation soybean half-seed explants described by Paz et al. (2006, Plant cell Rep. 25:206). Transformants were identified using Isoxaflutole as selection marker. The appearance of green shoots was observed, and documented as an indicator of tolerance to the herbicide isoxaflutole.

Experiment [6] has as its system transgenic soybean shoots, FMP22t-h. Put plainly: Soybean shoot greening on isoxaflutole selection. The class given is cell-based. The following applies: isoxaflutole as selection marker.
Description: as §1

The subject of a further experiment is wild-type soybean shoots. Put plainly: Soybean shoot greening on isoxaflutole selection. The class given is cell-based. The following applies: same amount of isoxaflutole.
Description: as §1

For experiment [7], the target named is T1, Arabidopsis thaliana HPPD SEQ ID No. 10 (Arabidopsis thaliana, UniProt P93836).
T1 sequence (P93836 with tags, fused parts or gaps): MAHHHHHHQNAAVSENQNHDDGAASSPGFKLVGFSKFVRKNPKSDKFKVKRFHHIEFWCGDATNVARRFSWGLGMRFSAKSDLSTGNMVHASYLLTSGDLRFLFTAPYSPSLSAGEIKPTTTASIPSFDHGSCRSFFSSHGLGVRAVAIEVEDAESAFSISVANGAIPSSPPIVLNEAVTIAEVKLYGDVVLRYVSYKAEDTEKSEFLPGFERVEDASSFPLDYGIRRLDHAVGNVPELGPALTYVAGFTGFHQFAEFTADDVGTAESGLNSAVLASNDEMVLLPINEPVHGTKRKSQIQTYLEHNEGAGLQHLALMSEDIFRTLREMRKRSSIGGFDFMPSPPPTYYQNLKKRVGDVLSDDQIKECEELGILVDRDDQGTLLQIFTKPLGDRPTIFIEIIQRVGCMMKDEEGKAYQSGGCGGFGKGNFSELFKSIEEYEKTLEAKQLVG
Put plainly: HPLC assay of HPPD in vitro kinetic properties. Conditions: substrate HPP, 10 to 400 μM; SEQ ID No. 10.
Description: All assays were started by the addition of HPPD enzyme to the assay mixture and stopped at a series of times between 0 and 240 s by addition of 200 μl of the reaction mixture to reaction assay tubes containing 20 μl 10% perchloric acid. Precipitated protein was pelleted by a 5 minute centrifugation at 10,000 g. […] For Km and Vmax value determinations the initial rates of the HPPD reaction at different substrate concentrations were determined from plots of HGA formed versus time and fitted to the Michaelis-Menten equation for unireactant enzymes using the ID Business Solutions Ltd. (idbs.com) XLfit software suite.

In experiment [8] the test system is Rhodococcus HPPD SEQ ID No. 19 (FMP23e). Put plainly: HPLC assay of HPPD in vitro kinetic properties. Conditions: substrate HPP, 10 to 400 μM; SEQ ID No. 19. The class given is biochemical, Rhodococcus sp. (strain RHA1), isolate ro02040.
The target of experiment [9] is T1, Arabidopsis thaliana HPPD SEQ ID No. 10. Put plainly: HPPD activity in presence of HPPD inhibitors (pI50, % inhibition). The class given is biochemical. More on the design: made in house; host or cells: E. coli K-12 BL21 (pQE30-AtHPPD).
Another experiment deals with Wild type tobacco plants. Put plainly: Response to bicyclopyrone, T1 tobacco classified by injury. Conditions: 100 g AI/ha, 7 DAT, line WT. The class given is in vivo, Nicotiana tabacum. The source says:
(§2) Seeds of wild type tobacco plants and T1 tobacco plants carrying the gene from Rhodococcus sp. (strain RHA1), isolate ro03041 FMP22e coding for HPPD FMP22 or plants carrying the gene from Rhodococcus sp. (strain RHA1) isolate ro02040 FMP23e coding for HPPD FMP23 were sown on MS media (Murashige and Skoog […]) supplemented with […] kanamycin. After 4 weeks, rooted green plantlets were transferred to soil and grown for 3 weeks in the glasshouse as described above then sprayed with a mixture containing bicyclopyrone (100 g Al/ha), ammonium sulfate and methyl ester raps oil. The plants were classified in two categories based on the phenotype developed in response to the herbicide seven days after the treatment. […] In this case, only plants containing at least one T-DNA were exposed to the herbicidal treatment.

In experiment [10] the test system is T1 tobacco plants carrying FMP23e. The description is as above. The class given is in vivo, Nicotiana tabacum. The following applies: 100 g AI/ha, 7 DAT, FMP23e line 188.
Description: as §2

Experiment [11] relates to T1 tobacco plants carrying FMP22e. The experiment is described as above. In kind it is in vivo, Nicotiana tabacum. Conditions: 100 g AI/ha, 7 DAT; for Class I (number of plants): injury: 0-30%; for Class II (number of plants): injury: 31-100%.
Description: as §2

The target of experiment [12] is (UniProt Q0SF39). Kind of experiment: HPLC assay of HPPD in vitro kinetic properties. In kind it is biochemical, Rhodococcus sp. (strain RHA1), isolate ro02040.
The mark [13] stands for this setting: SEQ ID No. 5, 5.0 × 10^−6 M inhibitor.
[14] abbreviates: SEQ ID No. 19, 5.0 × 10^−6 M inhibitor.

Broadly, the Km is the substrate concentration at which the rate is half of its maximum. As a reminder, the Ki is the equilibrium dissociation constant of an inhibitor or competing ligand from its target. Read a low Ki as tighter binding.

Structures are written as SMILES. Where two headings read alike, the source gives them in different places.

Turning to `CS(=O)(=O)c1ccc(C(=O)C2C(=O)CCCC2=O)c([N+](=O)[O-])c1` [Mesotrione, 2-[4-(methylsulfonyl)-2-nitrobenzoyl]-1,3-cyclohexanedione], the “percentage of inhibition compared to activity in absence of the inhibitor” value (from here on “percentage of inhibition”) is on record as 54% in [1] and 67% in experiment [2].
Regarding `CS(=O)(=O)c1ccc(C(=O)C2C(=O)CCCC2=O)c(Cl)c1COCC1CCCO1` (stereo not drawn) [Tefuryltrione, 2-[2-chloro-4-(methylsulfonyl)-3-[[(tetrahydro-2-furanyl)methoxy]methyl]benzoyl]-1,3-cyclohexanedione], the “percentage of inhibition” value came to 43% in [1] (setting [13]) and 65% in [2] (setting [14]). In addition, the IC50 was 6.31 µM at (UniProt Q0SC92) and 2.51 µM on (UniProt Q0SF39) [3].
For the molecule `CS(=O)(=O)c1cc(C(F)(F)F)ccc1C(=O)c1cnoc1C1CC1` [Isoxaflutole, (5-cyclopropyl-4-isoxazolyl)[2-(methylsulfonyl)-4-(trifluoromethyl)phenyl]methanone], the “% injury” value in experiment [4] is recorded as 100%. Moreover, the entries for the “transgenic tested shoots showing normal greening” value in experiment [5] and in experiment [6] were 1.9% and 1.8%, respectively. Moreover, in the experiment on wild-type soybean shoots, the “appearance of shoots treated with isoxaflutole” value is listed as “entirely bleached”.
Take `O=C(O)C(=O)Cc1ccc(O)cc1` [HPP, para-hydroxyphenylpyruvate]: in [7], the Km is 6.3 µM and the Vmax stood at 1.2 µM. For the same molecule, in experiment [8], the Michaelis-Menten constant (Km) stood at 35 µM and the Vmax worked out at 1.1 µM.
As for `Cc1nn(C)c(O)c1C(=O)c1ccc(C(F)(F)F)cc1S(C)(=O)=O` [Pyrasulfotole], the pI50 in experiment [9] (2 mM HPP, 3 minutes incubation) turned out to be 5.4; in experiment [1] (SEQ ID No. 5, 2 mM HPP, 3 minutes incubation), 4.0; in [2] (SEQ ID No. 19, 2 mM HPP, 3 minutes incubation) it was 4.1. Also, the “percentage of inhibition” value in experiment [9] (5.0 × 10^−6 M inhibitor) turned out to be 69%; in experiment [1] (setting [13]) it was 0%; in experiment [2] (setting [14]), 2%.
For the molecule `Cc1ccc(C(=O)COc2c(C(=O)c3ccc(Cl)c(C)c3Cl)c(C)nn2C)cc1` [Benzofenap], the “percentage of inhibition” value in experiment [1] (setting [13]) is reported as 57%; in [2] (setting [14]) it was 72%. For the same molecule, the values for the IC50 at (UniProt Q0SC92) and on (UniProt Q0SF39) [3] were 3.98 µM and 2.51 µM, respectively.
In turn, `CS(=O)(=O)c1ccc(C(=O)C2C(=O)CCCC2=O)c(Cl)c1` [Sulcotrione, 2-[2-chloro-4-(methylsulfonyl)benzoyl]-1,3-cyclohexanedione] displayed a pI50 in experiment [1] of 5.3. In experiment [2], the pI50 turned out to be 5.5 and the “percentage of inhibition” value came out at 73%.
With `COCCOCc1nc(C(F)(F)F)ccc1C(=O)C1=C(O)C2CCC(C2)C1=O` (stereo not drawn) [Bicyclopyrone, 4-hydroxy-3-[[2-[(2-methoxyethoxy)methyl]-6-(trifluoromethyl)-3-pyridinyl]carbonyl]bicyclo[3.2.1]oct-3-en-2-one], the “percentage of inhibition” value in experiment [1] (setting [13]) came out at 0%; in experiment [2] (setting [14]), 1%. For the same molecule, the IC50 is 126 µM on (UniProt Q0SC92) and 63.1 µM at (UniProt Q0SF39) [3]. Further, the “% of tolerant plant” value with Wild type tobacco plants is listed as 0%; in [10] it was 59%; in experiment [11] (FMP22e line 64), over 50%; in experiment [11] (FMP22e line 65), 64%; in experiment [11] (FMP22e line 163), 50%. Besides, the “Class I (number of plants)” value in the experiment with Wild type tobacco plants (Class I: no to light injuries (injury: 0-30%)) is reported as 0; in [10] (injury: 0-30%), 100; in [11] (FMP22e line 64), over 100; in experiment [11] (FMP22e line 65), 86; in experiment [11] (FMP22e line 163) it was 45. Besides, the “Class II (number of plants)” value in the experiment with Wild type tobacco plants (Class II: strong injuries (injury: 31-100%)) came to 12; in [10] (injury: 31-100%) it was 70; in experiment [11] (FMP22e line 64), 104; in experiment [11] (FMP22e line 65), 48; in experiment [11] (FMP22e line 163) it was 46.
Take `CS(=O)(=O)c1cc(C(F)(F)F)ccc1C(=O)C(C#N)C(=O)C1CC1` (stereo not drawn) [Diketonitrile, 2-cyano-3-cyclopropyl-1-(2-methylsulphonyl-4-trifluoromethylphenyl)-propane-1,3-dione]: the “percentage of inhibition” value in experiment [1] (setting [13]) came out at 27%; in [2] (setting [14]) it was 11%. Moreover, the IC50 at (UniProt Q0SC92) is 15.8 µM; at (UniProt Q0SF39) [3], 25.1 µM. This molecule also gave a Ki at (UniProt Q0SF39) [12] of 3.6 µM.
